# Where a SMILES comes first, the peptide text is derived from it. Bridges are numbered along the chain shown (N, C = ends). [ ]: non-standard residue; d: D form. The star is where a group is joined. Palmitoyl = CCCCCCCCCCCCCCCC(=O)*; pGlu = O=C1CC[C@@H](C(=O)O)N1; NHPhenethyl = c1ccc(CCN*)cc1; Lauroyl = CCCCCCCCCCCC(=O)*; Nle = CCCC[C@H](N)C(=O)O; Orn = NCCC[C@H](N)C(=O)O; Api = NC1(C(=O)O)CCNCC1; Dab = NCC[C@H](N)C(=O)O; AEEA = NCCOCCOCC(=O)O; Aib = CC(C)(N)C(=O)O; Inp = O=C(O)C1CCNCC1
# Test: in vitro
# Conditions: rat, not told, Surrogate activity-based Plasma stability t½
# Experimental: The slope of this line, k, was determined by linear regression (Microsoft Excel). • Stability half-life was then calculated by the formula, t ½=0.693÷k Surrogate Activity-Based Plasma Stability Assay:
# The calcium flux protocol described above was followed, with the following changes. The peptides were also incubated with 5% rat plasma (Bioreclamation # [sequence]-M, Na Heparin-treated). Readings were taken at time points t0 and t24 hrs, after incubation in a 37° C. tissue culture incubator. Peptide plasma half-life in minutes was estimated by calculating the following:
# 2) Calculate slope of value above and
row,half-life,SMILES
1,2.1 h,"CCCC[C@@H]1NC(=O)[C@@H]2CCCN2C(=O)CNC(=O)[C@H](CCCCN)NC(=O)[C@H](Cc2ccccc2)NC(=O)[C@@H](NC(=O)[C@H](CC(C)C)NC(=O)[C@H](CCCNC(=N)N)NC(=O)[C@@H]2CCCN2C(=O)[C@H](CCCNC(=N)N)NC(=O)[C@@H]2CCC(=O)N2)CCCCNC(=O)[C@H](Cc2ccccc2)NC1=O [Example 5, pE-R-P-R-L-K-F-K-G-P-Nle-F] ([pGlu]RPRLKFKGP[Nle]F; lactam 6-C)"
2,1.95 h,"CCCC[C@@H]1NC(=O)[C@@H]2CCCN2C(=O)CNC(=O)[C@H](CCCCN)NC(=O)[C@H](Cc2ccccc2)NC(=O)[C@@H](NC(=O)[C@H](CC(C)C)NC(=O)[C@H](CCCNC(=N)N)NC(=O)[C@@H]2CCCN2C(=O)[C@H](CCCNC(=N)N)NC(=O)[C@@H]2CCC(=O)N2)CCCCNC(=O)[C@@H](Cc2ccccc2)NC1=O [Example 6, pE-R-P-R-L-K-F-K-G-P-Nle-f] ([pGlu]RPRLKFKGP[Nle][dF]; lactam 6-C)"
3,> 16.7 h,"CCCC[C@@H]1NC(=O)[C@@H]2CCCN2C(=O)CNC(=O)[C@H](CCCCN)NC(=O)C(C)(C)NC(=O)[C@@H](NC(=O)[C@H](CC(C)C)NC(=O)[C@H](CCCNC(=N)N)NC(=O)[C@@H]2CCCN2C(=O)[C@H](CCCNC(=N)N)NC(=O)[C@@H]2CCC(=O)N2)CSSC[C@@H](C(=O)N[C@@H](Cc2ccccc2)C(=O)O)NC1=O [Example 9, pE-R-P-R-L-C-Aib-K-G-P-Nle-C-F-OH] ([pGlu]RPRLC[Aib]KGP[Nle]CF-OH; disulfide 6-12)"
4,> 16.7 h,"CCCC[C@@H]1NC(=O)[C@@H]2CCCN2C(=O)CNC(=O)[C@H](CCCCN)NC(=O)C(C)(C)NC(=O)[C@@H](NC(=O)[C@H](CC(C)C)NC(=O)[C@H](CCCNC(=N)N)NC(=O)[C@@H]2CCCN2C(=O)[C@H](CCCNC(=N)N)NC(=O)[C@@H]2CCC(=O)N2)CSSC[C@@H](C(=O)N[C@H](Cc2ccccc2)C(=O)O)NC1=O [Example 10, pE-R-P-R-L-C-Aib-K-G-P-Nle-C-f-OH] ([pGlu]RPRLC[Aib]KGP[Nle]C[dF]-OH; disulfide 6-12)"
5,> 16.7 h,"CCCC[C@@H]1NC(=O)[C@@H]2CCCN2C(=O)CNC(=O)[C@H](CCCCN)NC(=O)C(C)(C)NC(=O)[C@@H](NC(=O)[C@H](CC(C)C)NC(=O)[C@H](CCCNC(=N)N)NC(=O)[C@@H]2CCCN2C(=O)[C@H](CCCNC(=N)N)NC(=O)C2CCNCC2)CSSC[C@@H](C(=O)N[C@H](Cc2ccccc2)C(=O)O)NC1=O [Example 11, H-Isn-R-P-R-L-C-Aib-K-G-P-Nle-C-f-OH] (H-[Inp]RPRLC[Aib]KGP[Nle]C[dF]-OH; disulfide 6-12)"
6,3.01 h,"CCCC[C@@H]1NC(=O)[C@@H]2CCCN2C(=O)CNC(=O)[C@H](CCCCN)NC(=O)[C@H](Cc2ccccc2)NC(=O)[C@@H](NC(=O)[C@H](CC(C)C)NC(=O)[C@H](CCCNC(=N)N)NC(=O)[C@@H]2CCCN2C(=O)[C@H](CCCNC(=N)N)NC(=O)[C@@H]2CCC(=O)N2)CSSC[C@@H](C(=O)N[C@@H](Cc2ccccc2)C(=O)O)NC1=O [Example 15, pE-R-P-R-L-C-F-K-G-P-Nle-C-F-OH] ([pGlu]RPRLCFKGP[Nle]CF-OH; disulfide 6-12)"
7,8.17 h,"CCCC[C@@H]1NC(=O)[C@@H]2CCCN2C(=O)C(C)(C)NC(=O)[C@H](CCCCN)NC(=O)[C@H](Cc2c[nH]cn2)NC(=O)[C@@H](NC(=O)[C@H](CC(C)C)NC(=O)[C@H](CCCNC(=N)N)NC(=O)[C@@H]2CCCN2C(=O)[C@H](CCCNC(=N)N)NC(=O)[C@@H]2CCC(=O)N2)CSSC[C@@H](C(=O)N[C@@H](Cc2ccccc2)C(=O)O)NC1=O [Example 20, pE-R-P-R-L-C-H-K-Aib-P-Nle-C-F-OH] ([pGlu]RPRLCHK[Aib]P[Nle]CF-OH; disulfide 6-12)"
8,10.7 h,"CCCC[C@@H]1NC(=O)[C@@H]2CCCN2C(=O)CNC(=O)C2(CCNCC2)NC(=O)[C@H](Cc2c[nH]cn2)NC(=O)[C@@H](NC(=O)[C@H](CC(C)C)NC(=O)[C@H](CCCNC(=N)N)NC(=O)[C@@H]2CCCN2C(=O)[C@H](CCCNC(=N)N)NC(=O)[C@@H]2CCC(=O)N2)CSSC[C@@H](C(=O)N[C@@H](Cc2ccccc2)C(=O)O)NC1=O [Example 21, pE-R-P-R-L-C-H-(4-NH-Isn)-G-P-Nle-C-F-OH] ([pGlu]RPRLCH[Api]GP[Nle]CF-OH; disulfide 6-12)"
9,13.3 h,"CCCCCCCCCCCCCCCC(=O)NCCCC[C@H](NC(=O)[C@@H]1CSSC[C@H](NC(=O)[C@H](CC(C)C)NC(=O)[C@H](CCCNC(=N)N)NC(=O)[C@@H]2CCCN2C(=O)[C@H](CCCNC(=N)N)NC(=O)[C@@H]2CCC(=O)N2)C(=O)N[C@@H](Cc2c[nH]cn2)C(=O)N[C@@H](CCCCN)C(=O)NCC(=O)N2CCC[C@H]2C(=O)N[C@@H](CCCC)C(=O)N1)C(=O)O [Example 22, pE-R-P-R-L-C-H-K-G-P-Nle-C-K(Palmitoyl)-OH] ([pGlu]RPRLCHKGP[Nle]CK(Palmitoyl)-OH; disulfide 6-12)"
10,> 16.7 h,"CCCCCCCCCCCCCCCC(=O)NCCCC[C@@H]1NC(=O)[C@@H](NC(=O)[C@H](CC(C)C)NC(=O)[C@H](CCCNC(=N)N)NC(=O)[C@@H]2CCCN2C(=O)[C@H](CCCNC(=N)N)NC(=O)[C@@H]2CCC(=O)N2)CSSC[C@@H](C(=O)N[C@@H](Cc2ccccc2)C(=O)O)NC(=O)[C@H](CCCC)NC(=O)[C@@H]2CCCN2C(=O)CNC(=O)[C@H](CCCCN)NC1=O [Example 23, pE-R-P-R-L-C-K(Palmitoyl)-K-G-P-Nle-C-F-OH] ([pGlu]RPRLCK(Palmitoyl)KGP[Nle]CF-OH; disulfide 6-12)"
11,> 16.7 h,"CCCCCCCCCCCC(=O)NCCOCCOCC(=O)N[C@@H](CCC(N)=O)C(=O)N[C@@H](CCCNC(=N)N)C(=O)N1CCC[C@H]1C(=O)N[C@@H](CCCNC(=N)N)C(=O)N[C@@H](CC(C)C)C(=O)N[C@H]1CSSC[C@@H](C(=O)N[C@@H](Cc2ccccc2)C(=O)O)NC(=O)[C@H](CCCC)NC(=O)[C@@H]2CCCN2C(=O)CNC(=O)[C@H](CCCCN)NC(=O)[C@H](Cc2c[nH]cn2)NC1=O [Example 25, Lauroyl-O2Oc-Q-R-P-R-L-C-H-K-G-P-Nle-C-F-OH] ({Lauroyl-AEEA}-QRPRLCHKGP[Nle]CF-OH; disulfide 6-12)"
12,> 16.7 h,"CCCCCCCCCCCC(=O)NCCCC[C@H](NC(=O)[C@@H]1CSSC[C@H](NC(=O)[C@H](CC(C)C)NC(=O)[C@H](CCCNC(=N)N)NC(=O)[C@@H]2CCCN2C(=O)[C@H](CCCNC(=N)N)NC(=O)[C@@H]2CCC(=O)N2)C(=O)N[C@@H](Cc2c[nH]cn2)C(=O)N[C@@H](CCCCN)C(=O)NCC(=O)N2CCC[C@H]2C(=O)N[C@@H](CCCC)C(=O)N1)C(=O)O [Example 26, pE-R-P-R-L-C-H-K-G-P-Nle-C-K(Lauroyl)-OH] ([pGlu]RPRLCHKGP[Nle]CK(Lauroyl)-OH; disulfide 6-12)"
13,> 16.7 h,"CCCCCCCCCCCC(=O)NCCCC[C@@H]1NC(=O)[C@@H](NC(=O)[C@H](CC(C)C)NC(=O)[C@H](CCCNC(=N)N)NC(=O)[C@@H]2CCCN2C(=O)[C@H](CCCNC(=N)N)NC(=O)[C@@H]2CCC(=O)N2)CSSC[C@@H](C(=O)N[C@@H](Cc2ccccc2)C(=O)O)NC(=O)[C@H](CCCC)NC(=O)[C@@H]2CCCN2C(=O)CNC(=O)[C@H](CCCCN)NC1=O [Example 27, pE-R-P-R-L-C-K(Lauroyl)-K-G-P-Nle-C-F-OH] ([pGlu]RPRLCK(Lauroyl)KGP[Nle]CF-OH; disulfide 6-12)"
14,> 16.7 h,"CCCC[C@@H]1NC(=O)[C@@H]2CCCN2C(=O)CNC(=O)[C@H](CCCCN)NC(=O)[C@H](Cc2c[nH]cn2)NC(=O)[C@@H](NC(=O)[C@H](CC(C)C)NC(=O)[C@H](CCCNC(=N)N)NC(=O)[C@@H]2CCCN2C(=O)[C@@H](CCCNC(=N)N)NC(=O)[C@@H]2CCC(=O)N2)CSSC[C@@H](C(=O)N[C@@H](Cc2ccccc2)C(=O)O)NC1=O [Example 30, pE-r-P-R-L-C-H-K-G-P-Nle-C-F-OH] ([pGlu][dR]PRLCHKGP[Nle]CF-OH; disulfide 6-12)"

row,SMILES,half-life
1,"CCCC[C@@H]1NC(=O)[C@@H]2CCCN2C(=O)CNC(=O)[C@H](Cc2ccccc2)NC(=O)[C@H](Cc2c[nH]cn2)NC(=O)[C@@H](NC(=O)[C@H](CC(C)C)NC(=O)[C@H](CCCNC(=N)N)NC(=O)[C@@H]2CCCN2C(=O)[C@H](CCCNC(=N)N)NC(=O)[C@@H]2CCC(=O)N2)CCCCNC(=O)C[C@@H](C(=O)NCCc2ccccc2)NC1=O [Example 1, pE-R-P-R-L-K-H-F-G-P-Nle-D-Phenethylamine] ([pGlu]RPRLKHFGP[Nle]D-NHPhenethyl; lactam 6-12)",0.512 h
2,"CCCC[C@@H]1NC(=O)[C@@H]2CCCN2C(=O)CNC(=O)[C@H](Cc2ccccc2)NC(=O)[C@H](Cc2c[nH]cn2)NC(=O)[C@@H](NC(=O)[C@H](CC(C)C)NC(=O)[C@H](CCCNC(=N)N)NC(=O)[C@@H]2CCCN2C(=O)[C@H](CCCNC(=N)N)NC(=O)[C@@H]2CCC(=O)N2)CCCCNC(=O)CC[C@@H](C(=O)NCCc2ccccc2)NC1=O [Example 2, pE-R-P-R-L-K-H-F-G-P-Nle-E-Phenethylamine] ([pGlu]RPRLKHFGP[Nle]E-NHPhenethyl; lactam 6-12)",0.452 h
3,"CCCC[C@@H]1NC(=O)[C@@H]2CCCN2C(=O)CNC(=O)[C@H](Cc2ccccc2)NC(=O)[C@H](Cc2c[nH]cn2)NC(=O)[C@@H](NC(=O)[C@H](CC(C)C)NC(=O)[C@H](CCCNC(=N)N)NC(=O)[C@@H]2CCCN2C(=O)[C@H](CCCNC(=N)N)NC(=O)[C@@H]2CCC(=O)N2)CCCNC(=O)C[C@@H](C(=O)NCCc2ccccc2)NC1=O [Example 3, pE-R-P-R-L-Orn-H-F-G-P-Nle-D-Phenethylamine] ([pGlu]RPRL[Orn]HFGP[Nle]D-NHPhenethyl; lactam 6-12)",1.63 h
4,"CCCC[C@@H]1NC(=O)[C@@H]2CCCN2C(=O)CNC(=O)[C@H](Cc2ccccc2)NC(=O)[C@H](Cc2c[nH]cn2)NC(=O)[C@@H](NC(=O)[C@H](CC(C)C)NC(=O)[C@H](CCCNC(=N)N)NC(=O)[C@@H]2CCCN2C(=O)[C@H](CCCNC(=N)N)NC(=O)[C@@H]2CCC(=O)N2)CCNC(=O)C[C@@H](C(=O)NCCc2ccccc2)NC1=O [Example 4, pE-R-P-R-L-Dab-H-F-G-P-Nle-D-Phenethylamine] ([pGlu]RPRL[Dab]HFGP[Nle]D-NHPhenethyl; lactam 6-12)",0.833 h
5,"CCCC[C@@H]1NC(=O)[C@@H]2CCCN2C(=O)CNC(=O)[C@H](Cc2ccccc2)NC(=O)[C@H](Cc2c[nH]cn2)NC(=O)[C@@H](NC(=O)[C@H](CC(C)C)NC(=O)[C@H](CCCNC(=N)N)NC(=O)[C@@H]2CCCN2C(=O)[C@H](CCCNC(=N)N)NC(=O)[C@@H]2CCC(=O)N2)CSSC[C@@H](C(=O)NCCc2ccccc2)NC1=O [Example 19, pE-R-P-R-L-C-H-F-G-P-Nle-C-Phenethylamine] ([pGlu]RPRLCHFGP[Nle]C-NHPhenethyl; disulfide 6-12)",0.473 h

# Reference: US9982017B2, “Synthetic apelin mimetics for the treatment of heart failure” (priority 2012, dated 2018)
